{
  "source": "patent US20040110787A1",
  "about": "“Heteroaryl-ethanolamine derivatives as antiviral agents” (priority 2002, published 2004)",
  "key": {"HCMV polymerase": {"target": "T1, HCMV polymerase (Human cytomegalovirus, UniProt P08546)", "T1 construct": "made in house; host or cells: recombinant baculovirus-infected SF-9 cells", "T1 sequence (P08546 whole entry)": "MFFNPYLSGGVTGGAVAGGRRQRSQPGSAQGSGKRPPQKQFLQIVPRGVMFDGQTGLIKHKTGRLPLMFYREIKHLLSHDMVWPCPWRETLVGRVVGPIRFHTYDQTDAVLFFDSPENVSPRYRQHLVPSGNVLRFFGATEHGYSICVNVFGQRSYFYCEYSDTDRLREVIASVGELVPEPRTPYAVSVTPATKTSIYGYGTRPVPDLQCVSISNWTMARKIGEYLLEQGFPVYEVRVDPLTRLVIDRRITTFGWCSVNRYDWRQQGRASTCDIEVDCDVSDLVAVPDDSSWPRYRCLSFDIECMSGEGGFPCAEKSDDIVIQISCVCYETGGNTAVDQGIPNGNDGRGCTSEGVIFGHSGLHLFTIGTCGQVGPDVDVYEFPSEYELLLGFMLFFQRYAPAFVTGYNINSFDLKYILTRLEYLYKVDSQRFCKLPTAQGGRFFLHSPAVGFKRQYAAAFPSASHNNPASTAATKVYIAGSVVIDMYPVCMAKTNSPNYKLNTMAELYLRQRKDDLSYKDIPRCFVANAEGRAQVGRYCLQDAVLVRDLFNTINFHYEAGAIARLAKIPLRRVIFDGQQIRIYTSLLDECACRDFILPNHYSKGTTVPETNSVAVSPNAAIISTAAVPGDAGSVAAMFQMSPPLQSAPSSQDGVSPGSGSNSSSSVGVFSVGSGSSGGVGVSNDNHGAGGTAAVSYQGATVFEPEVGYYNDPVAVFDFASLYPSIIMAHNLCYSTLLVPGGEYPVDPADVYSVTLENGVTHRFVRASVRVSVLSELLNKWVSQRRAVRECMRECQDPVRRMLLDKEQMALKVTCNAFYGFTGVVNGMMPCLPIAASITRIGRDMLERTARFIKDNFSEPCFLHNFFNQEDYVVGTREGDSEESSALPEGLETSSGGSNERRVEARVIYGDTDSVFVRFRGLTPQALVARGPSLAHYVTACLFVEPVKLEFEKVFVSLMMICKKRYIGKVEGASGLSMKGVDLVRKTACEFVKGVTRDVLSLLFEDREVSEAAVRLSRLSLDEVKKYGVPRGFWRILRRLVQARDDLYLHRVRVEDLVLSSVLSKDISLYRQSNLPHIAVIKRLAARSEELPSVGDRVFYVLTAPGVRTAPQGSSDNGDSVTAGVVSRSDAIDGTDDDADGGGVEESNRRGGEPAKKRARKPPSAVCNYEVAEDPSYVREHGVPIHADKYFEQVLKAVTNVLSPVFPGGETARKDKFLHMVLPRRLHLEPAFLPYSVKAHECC", "assay": "HCMV polymerase scintillation proximity assay (SPA)", "type": "biochemical", "conditions": "HCMV polymerase, SPA; read-out: Polymerase IC50 HCMV", "experimental": "The HCMV polymerase assay is performed using a scintillation proximity assay (SPA) as described in several references, such as N. D. Cook, et al., Pharmaceutical Manufacturing International, pages 49-53 (1992); K Takeuchi, Laboratory Practice, September issue (1992); U.S. Pat. No. 4,568,649 (1986); which are incorporated by reference herein. Reactions are performed in 96-well plates. The assay is conducted in 100 μl volume with 5.4 mM HEPES (pH 7.5), 11.7 mM KCl, 4.5 mM MgCl2, 0.36 mg/ml BSA, and 90 nM ^3H-dTTP. Assays are run with and without CHAPS, (3-[(3-Cholamidopropyl)-dimethylammonio]-1-propane-sulfonate) at a final concentration of 2 mM. HCMV polymerase is diluted in enzyme dilution buffer containing 50% glycerol, 250 mM NaCl, 10 mM HEPES (pH 7.5), 100 μg/ml BSA, and 0.01% sodium azide. The HCMV polymerase, which is expressed in, recombinant baculovirus-infected SF-9 cells and purified according to literature procedures, is added at 10% (or 10 μl) of the final reaction volume, i.e., 100 μl. Compounds are diluted in 50% DMSO and 10 μl are added to each well. Control wells contain an equivalent concentration of DMSO. Unless noted otherwise, reactions are initiated via the addition of 6 nM biotinylated poly(dA)-oligo(dT) template/primer to reaction mixtures containing the enzyme, substrate, and compounds of interest. Plates are incubated in a 25° C. or 37° C. H2O bath and terminated via the addition of 40 μl/reaction of 0.5 M EDTA (pH 8) per well. Reactions are terminated within the time-frame during which substrate incorporation is linear and varied depending upon the enzyme and conditions used, i.e., 30 min. for HCMV polymerase. Ten (10) 10 μL of streptavidin-SPA beads (20 mg/ml in PBS/10% glycerol) are added following termination of the reaction. Plates are incubated 10 min. at 37° C., then equilibrated to room temperature, and counted on a Packard Topcount. Linear regressions are performed and IC50's are calculated using computer software.\nA modified version of the above HCMV polymerase assay is performed as described above, but with the following changes: Compounds are diluted in 100% DMSO until final dilution into assay buffer. In the previous assay, compounds are diluted in 50% DMSO. 4.5 mM Dithiothreitol (DTT) is added to the polymerase buffer.\nAll results are listed as Polymerase IC50 ([…]) values. In Table 1, the term “n.d.” refers to activity data not determined."}, "HSV polymerase": {"target": "HSV polymerase (Human herpesvirus 1, UniProt P04293)", "sequence (P04293 whole entry)": "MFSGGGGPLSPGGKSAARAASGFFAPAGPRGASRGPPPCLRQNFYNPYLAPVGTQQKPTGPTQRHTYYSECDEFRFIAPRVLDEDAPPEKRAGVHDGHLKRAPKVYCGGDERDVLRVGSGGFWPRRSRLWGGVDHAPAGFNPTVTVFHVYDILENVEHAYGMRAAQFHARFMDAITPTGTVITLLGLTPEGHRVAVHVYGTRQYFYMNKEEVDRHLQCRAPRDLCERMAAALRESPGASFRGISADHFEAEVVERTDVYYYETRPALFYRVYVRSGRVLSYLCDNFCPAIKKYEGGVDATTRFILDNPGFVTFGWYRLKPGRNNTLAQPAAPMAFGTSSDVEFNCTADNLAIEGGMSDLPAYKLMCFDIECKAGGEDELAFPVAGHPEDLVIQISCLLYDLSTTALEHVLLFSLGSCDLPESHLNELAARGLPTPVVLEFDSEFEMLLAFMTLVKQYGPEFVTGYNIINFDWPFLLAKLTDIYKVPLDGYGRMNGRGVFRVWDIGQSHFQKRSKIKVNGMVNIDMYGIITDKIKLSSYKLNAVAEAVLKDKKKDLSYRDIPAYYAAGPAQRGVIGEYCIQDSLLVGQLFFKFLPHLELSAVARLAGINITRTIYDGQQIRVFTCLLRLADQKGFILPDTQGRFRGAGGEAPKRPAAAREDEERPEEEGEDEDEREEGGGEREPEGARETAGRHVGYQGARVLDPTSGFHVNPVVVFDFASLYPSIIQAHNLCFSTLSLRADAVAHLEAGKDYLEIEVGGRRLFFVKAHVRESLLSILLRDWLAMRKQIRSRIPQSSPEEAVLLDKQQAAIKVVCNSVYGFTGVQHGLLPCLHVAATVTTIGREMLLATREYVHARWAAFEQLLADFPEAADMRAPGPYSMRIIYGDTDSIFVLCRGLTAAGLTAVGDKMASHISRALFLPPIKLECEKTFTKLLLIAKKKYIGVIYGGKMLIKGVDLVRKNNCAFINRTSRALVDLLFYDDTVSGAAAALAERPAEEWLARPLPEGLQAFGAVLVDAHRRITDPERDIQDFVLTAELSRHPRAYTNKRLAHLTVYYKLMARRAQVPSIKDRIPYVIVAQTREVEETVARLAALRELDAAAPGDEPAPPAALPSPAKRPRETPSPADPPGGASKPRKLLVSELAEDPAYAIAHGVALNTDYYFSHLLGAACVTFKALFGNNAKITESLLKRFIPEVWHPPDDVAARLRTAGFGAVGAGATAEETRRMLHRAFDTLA", "assay": "HSV polymerase assay (Table 1)", "type": "biochemical"}, "VZV polymerase": {"target": "VZV polymerase (Varicella-zoster virus, UniProt P09252)", "sequence (P09252 whole entry)": "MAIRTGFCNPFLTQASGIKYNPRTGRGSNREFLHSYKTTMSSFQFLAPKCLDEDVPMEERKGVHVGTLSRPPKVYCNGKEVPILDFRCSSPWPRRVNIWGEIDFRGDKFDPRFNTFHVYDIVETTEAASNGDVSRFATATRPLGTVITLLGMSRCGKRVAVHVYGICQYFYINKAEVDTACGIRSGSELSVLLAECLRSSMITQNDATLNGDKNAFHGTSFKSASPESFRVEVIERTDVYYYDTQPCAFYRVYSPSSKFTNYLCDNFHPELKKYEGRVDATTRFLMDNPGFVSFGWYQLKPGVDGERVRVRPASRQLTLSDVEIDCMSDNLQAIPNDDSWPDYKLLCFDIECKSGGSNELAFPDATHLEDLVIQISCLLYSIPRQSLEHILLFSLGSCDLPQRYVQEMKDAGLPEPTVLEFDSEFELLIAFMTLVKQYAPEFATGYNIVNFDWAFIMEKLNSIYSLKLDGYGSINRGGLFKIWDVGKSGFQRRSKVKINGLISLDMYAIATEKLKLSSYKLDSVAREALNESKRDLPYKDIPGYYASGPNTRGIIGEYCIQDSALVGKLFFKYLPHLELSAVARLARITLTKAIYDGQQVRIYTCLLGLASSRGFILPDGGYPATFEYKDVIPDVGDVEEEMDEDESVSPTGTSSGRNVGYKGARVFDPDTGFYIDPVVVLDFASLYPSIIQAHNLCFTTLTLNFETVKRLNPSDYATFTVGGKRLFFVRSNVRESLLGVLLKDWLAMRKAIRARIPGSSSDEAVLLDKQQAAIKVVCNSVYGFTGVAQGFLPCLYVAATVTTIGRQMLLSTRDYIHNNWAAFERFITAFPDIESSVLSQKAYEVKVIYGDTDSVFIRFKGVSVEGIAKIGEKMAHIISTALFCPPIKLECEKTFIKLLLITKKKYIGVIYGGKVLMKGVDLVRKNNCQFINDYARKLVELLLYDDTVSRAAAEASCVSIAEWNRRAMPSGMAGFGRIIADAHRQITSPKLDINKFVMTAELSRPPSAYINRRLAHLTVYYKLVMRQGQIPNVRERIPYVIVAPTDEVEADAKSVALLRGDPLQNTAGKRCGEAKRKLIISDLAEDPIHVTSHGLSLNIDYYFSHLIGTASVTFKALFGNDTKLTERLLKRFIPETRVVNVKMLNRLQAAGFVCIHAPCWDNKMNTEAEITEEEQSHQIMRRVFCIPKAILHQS", "assay": "VZV polymerase assay (Table 1)", "type": "biochemical"}},
  "note": "pIC50: −log10 of the molar value.",
  "data": [
    {"smiles": "CN(Cc1cc2c(=O)c(C(=O)NCc3ccc(Cl)cc3)cn(C)c2s1)CC(O)c1ccc2ccccc2n1", "note": "(racemic) [Example 7, rac-N-(4-Chlorobenzyl)-2-(((2-hydroxy-2-quinolin-2-ylethyl)(methyl)amino)methyl)-7-methyl-4-oxo-4,7-dihydrothieno[2,3-b]pyridine-5-carboxamide]", "values": [
      {"measurement": "pIC50", "setting": "HCMV polymerase", "result": 7.15},
      {"measurement": "pIC50", "setting": "HSV polymerase", "result": 6.82},
      {"measurement": "pIC50", "setting": "VZV polymerase", "result": 7.40},
      {"measurement": "melting point", "result": "155 to 160", "unit": "°C"}
    ]},
    {"smiles": "CN(Cc1cc2c(=O)c(C(=O)NCc3ccc(Cl)cc3)cn(C)c2s1)CC(O)c1ncccn1", "note": "(racemic) [Example 8, rac-N-(4-Chlorobenzyl)-2-(((2-hydroxy-2-pyrimidin-2-ylethyl)(methyl)amino)methyl)-7-methyl-4-oxo-4,7-dihydrothieno[2,3-b]pyridine-5-carboxamide]", "values": [
      {"measurement": "pIC50", "setting": "HCMV polymerase", "result": 6.89},
      {"measurement": "pIC50", "setting": "HSV polymerase", "result": 6.82},
      {"measurement": "pIC50", "setting": "VZV polymerase", "result": 7.30},
      {"measurement": "melting point", "result": 181, "unit": "°C"}
    ]},
    {"smiles": "CCn1cc(C(=O)NCc2ccc(Cl)cc2)c(=O)c2cc(CN(C)CC(O)c3cnccn3)sc21", "note": "(racemic) [Example 13, rac-N-(4-Chlorobenzyl)-7-ethyl-2-(((2-hydroxy-2-pyrazin-2-ylethyl)(methyl)amino)methyl)-4-oxo-4,7-dihydrothieno[2,3-b]pyridine-5-carboxamide]", "values": [
      {"measurement": "pIC50", "setting": "HCMV polymerase", "result": 6.43},
      {"measurement": "pIC50", "setting": "HSV polymerase", "result": 6.26},
      {"measurement": "pIC50", "setting": "VZV polymerase", "result": 6.77},
      {"measurement": "melting point", "result": "130 to 133", "unit": "°C"}
    ]},
    {"smiles": "CN(Cc1cc2c(=O)c(C(=O)NCc3ccc(Cl)cc3)cn(C)c2s1)CC(O)c1cccnc1", "note": "(single isomer, unassigned; (+)) [Example 2, (+)-N-(4-Chlorobenzyl)-2-(((2-hydroxy-2-pyridin-3-ylethyl)(methyl)amino)methyl)-7-methyl-4-oxo-4,7-dihydrothieno[2,3-b]pyridine-5-carboxamide]", "values": [
      {"measurement": "pIC50", "setting": "HCMV polymerase", "result": 7.10},
      {"measurement": "pIC50", "setting": "HSV polymerase", "result": 6.46},
      {"measurement": "pIC50", "setting": "VZV polymerase", "result": 6.89},
      {"measurement": "melting point", "result": "132 to 135", "unit": "°C"}
    ]},
    {"smiles": "CN(Cc1cc2c(=O)c(C(=O)NCc3ccc(Cl)cc3)cn(C)c2s1)C[C@@H](O)c1ccccn1", "note": "[Example 5, (+)-N-(4-Chlorobenzyl)-2-((((2R)-2-hydroxy-2-pyridin-2-ylethyl)(methyl)amino)methyl)-7-methyl-4-oxo-4,7-dihydrothieno[2,3-b]pyridine-5-carboxamide]", "values": [
      {"measurement": "pIC50", "setting": "HCMV polymerase", "result": 7.22},
      {"measurement": "pIC50", "setting": "HSV polymerase", "result": 7.22},
      {"measurement": "pIC50", "setting": "VZV polymerase", "result": 7.70},
      {"measurement": "melting point", "result": "139 to 144", "unit": "°C"}
    ]}
  ]
}
